Experimental data taken from patent US10759740B2, “Antibacterial agents” (Rutgers, The State University of New Jersey, priority 2016, dated 2020).

Experiments:
[1] = tested on: G. vaginalis pre-formed biofilms; test: Biofilm removal (FIG. 5); type: cell-based; conditions: 250 μg/mL against pre-formed biofilms
E. coli = test: SEM and TEM of treated bacteria; type: cell-based, Escherichia coli; conditions: at MIC, 1 h
Method: (§1) Bacteria were grown to the mid-exponential growth phase. Silicon wafers were submerged in the bacterial solutions in the presence or absence of CAMs at their respective MICs and incubated for 1 h. 0.25% glucose was added to facilitate attachment. The bacteria on wafers were fixed in 2.5% glutaraldehyde for 1 h at room temperature, washed three times with PBS, and postfixed 1% osmium tetroxide. The samples were then dehydrated in a graded series of ethanol solutions (50%, 70%, 80%, 95%, 100%), dried with graded hexamethyldisilazane (50%, 100%), and left to air dry for two days. After drying, the wafers were mounted on stub and sputter-coated with 20 nm gold prior to inspection under microscope (Zeiss Sigma Field Emission SEM, Carl Zeiss, Ontario, Calif.) at 5 kV.
(§2) Bacteria were grown as described above for SEM sample preparation. In brief, bacteria were incubated in the presence or absence of CAMs at their respective MICs for 1 h. After centrifugation at 500×g for 10 min, the resulting pellet was fixed in 2.5% glutaraldehyde, washed three times with PBS, and postfixed with 1% osmium tetroxide. The samples were then dehydrated with graded ethanol series (50%, 70%, 80%, 95%, 100%) and embedded in epoxy resin (Dr. Spurr's kit, Electron Microscopy Sciences, Hatfield, Pa.). Ultrathin sections of the cells were stained with 1% uranyl acetate. […]

[2] = tested on: L. monocytogenes pre-formed biofilms; test: MBC-B against pre-formed biofilms (Example 2); type: cell-based; conditions: pre-formed biofilm, ≥3 log reduction in viable cells
Method: (§3) The minimum biofilm bactericidal concentrations (MBC-Bs) of the cationic amphiphiles against pre-formed biofilms of L. monocytogenes and G. vaginalis were identified. The biofilms of the two targeted microorganisms were grown in 96-well plates according to established methodology for Gram-positive and Gram-variable bacteria (Tabak et al., FEMS microbiology letters. 2009; 301(1):69-76). To identify the reduction in the number of biofilm-associated viable cells treated with different concentrations of cationic amphiphiles, the spot plate method was used (Turovskiy et al., Infectious diseases in obstetrics and gynecology. 2012; 2012:284762, 9 pages). In brief, biofilms were washed, disrupted, diluted 10^1-10^8 times with fresh medium and the samples plated on suitable solid medium.

[3] = tested on: G. vaginalis pre-formed biofilms; test: MBC-B against pre-formed biofilms (Example 2); type: cell-based; conditions: pre-formed biofilm, ≥3 log reduction in viable cells
Method: as §3

S. aureus = test: SEM and TEM of treated bacteria; type: cell-based, Staphylococcus aureus; conditions: at MIC, 1 h
Method: as §1, §2

| SMILES | removal of biofilm structures [1] | ultrastructural changes (TEM) (E. coli) | MBC-B, L. monocytogenes [2] | MBC-B G. vaginalis [3] | ultrastructural changes (TEM) (S. aureus) |
| --- | --- | --- | --- | --- | --- |
| CCCCCCCCCCOC(C(=O)NCCN)C(OCCCCCCCCCC)C(=O)NCCN.Cl.Cl (stereo not shown) [5b] | up to 70% | extensive ultrastructural damage | approximately 250 μg/mL | approximately 31.25 μg/mL | profound internal damage |
| CCCCCCCCCC(=O)OC(C(=O)NCCN)C(OC(=O)CCCCCCCCC)C(=O)NCCN.Cl.Cl (stereo not shown) [8b] |  |  | approximately 250 μg/mL | approximately 31.25 μg/mL |  |
